Experimental data from PubChem BioAssay AID463199 (Broad Institute, 2010).
Calls of active or inactive are those of the source.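 Rule for the calls: active = AC50, the dose giving half-maximal effect, exceeds a fixed cutoff for a compound that rescues yeast growth under heat; inactive = the rest, inconclusive results apart.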

Tested on: S. cerevisiae Burl-1 ts mutant growth, BacTiter-Glo, 38.5C 24 h
Experiment: restored growth of temperature-sensitive Burl-1 yeast – whole organism, S. cerevisiae, Burl-1 ts mutant, luminescence, counter-screen for SUMOylation pathway inhibitor project, dose response (AID 463199)

Row | SMILES | AC50
1 | CCOC(=O)CS(=O)(=O)c1ccc2ccccc2c1 | > 42 µM (inactive)
2 | CN(C)C(=O)c1coc2nc3ccccc3nc12 | > 42 µM (inactive)
3 | Cc1ccc(-c2noc(C3CCCN(S(=O)(=O)c4ccc5ccccc5c4)C3)n2)o1 (configuration not stated) | > 42 µM (inactive)
4 | CCCCn1c2nc3ccccc3nc2c2c(=O)n(CCC)cnc21 | > 42 µM (inactive)
5 | Cc1ccc(-n2c(SCC(=O)N(C)C3CCS(=O)(=O)C3)nc3ccccc3c2=O)cc1 (configuration not stated) | > 42 µM (inactive)
6 | Cc1cc(C)c2nc(-c3cccnc3)cc(C(=O)Nc3ccc(S(=O)(=O)Nc4onc(C)c4C)cc3)c2c1 | > 42 µM (inactive)
7 | CCn1c(SCC(=O)OC)nnc1-c1ccncc1 | > 42 µM (inactive)
8 | CCOC(=O)c1cnc2c(C)c(Cl)ccc2c1N1CCOCC1 | > 42 µM (inactive)
9 | CC1(C)Cc2c(c(N3CCCC3)nc3sc4c(N5CCN(CCO)CC5)ncnc4c23)CO1 | > 42 µM (inactive)
10 | CCn1cc(CCCC(=O)NCc2ccccc2OC)c2ccccc21 | > 42 µM (inactive)
11 | CC(C)C[C@@H](CO)N1CCN(Cc2cccnc2)CCC1=O | > 42 µM (inactive)
12 | CN1C(C(=O)Nc2ccccn2)=C(O)c2sccc2S1(=O)=O | > 42 µM (inactive)
13 | COc1ccc(C2CC(c3cccs3)=NN2C(=O)c2ccccc2)cc1OC (configuration not stated) | > 42 µM (inactive)
14 | COC(=O)C1=C(C)N(Cc2ccccc2)C(=S)N[C@H]1c1cccc(F)c1 | > 42 µM (inactive)
15 | COCCCNCC(O)COc1cccc2[nH]c(C)cc12 (configuration not stated) | > 42 µM (inactive)
16 | CCCCNS(=O)(=O)c1ccc(OC)cc1 | > 42 µM (inactive)
17 | COC(=O)C1(Cc2ccc(O)cc2)OC(=O)C(O)=C1c1ccc(O)cc1 (configuration not stated) | > 42 µM (inactive)
18 | O=C1OCc2cc(NS(=O)(=O)c3cccs3)ccc21 | > 42 µM (inactive)
19 | Cc1cc(C)cc(OCC(=O)NC2CCCc3ccccc32)c1 (configuration not stated) | > 42 µM (inactive)
20 | CCOC(=O)c1sc(NC(=O)CSc2n[nH]c(-c3ccc(Cl)cc3Cl)n2)c(C#N)c1C | > 42 µM (inactive)
21 | CN1C(=S)SC2CS(=O)(=O)CC21C (configuration not stated) | > 21 µM (inactive)
22 | CC(=O)Nc1cc2nn(-c3ccccc3)nc2cc1Cl | > 42 µM (inactive)
23 | Oc1c(Br)cc(Br)cc1/C=N/N1CCN(Cc2ccccc2)CC1 | > 42 µM (inactive)
24 | CN(C)CCN(Cc1ccc(Cl)cc1)c1ccccn1 | 36.3 µM

Row | SMILES | AC50
25 | COc1cccc(C(=O)N2CCN(S(=O)(=O)Cc3ccccc3)CC2)c1OC | > 42 µM (inactive)
26 | CCCN(CCC)C(=O)CSc1ncccc1C(=O)O | > 42 µM (inactive)
27 | CCNCc1nc2cc(Cl)ccc2c(=O)[nH]1 | > 42 µM (inactive)
28 | N#CC1=C(N)Nc2ncnn2C1c1ccc([N+](=O)[O-])cc1 (configuration not stated) | > 42 µM (inactive)
29 | O=C(O)CC(NC(=O)c1ccc2c(c1)OCO2)c1cccc([N+](=O)[O-])c1 (configuration not stated) | > 42 µM (inactive)
30 | Cc1c(NC(=O)c2ccc(N(C)S(C)(=O)=O)cc2)c(=O)n(-c2ccccc2)n1C | > 42 µM (inactive)
31 | CCn1c(SCC(=O)Nc2nc(-c3ccccc3)cs2)nnc1-c1ccccc1 | > 42 µM (inactive)
32 | O=C(CCC1CCCN(C(=O)Cc2cccc(F)c2)C1)N1CCN(c2ccccn2)CC1 (configuration not stated) | > 42 µM (inactive)
33 | CCOc1ccc(Br)cc1CNCCN1CCOCC1 | > 42 µM (inactive)
34 | O=C1N=C(N2CCOCC2)S/C1=C\c1cccnc1 | > 42 µM (inactive)
35 | O=C(c1ccccc1F)N1CCN=C1SCc1cccnc1 | > 42 µM (inactive)
36 | Cc1cccc(-[n+]2c(-c3cccc(Br)c3)[nH]c3nc4ccccc4nc32)c1 | > 42 µM (inactive)
37 | CCC1CCCCN1CCCNC(=O)C1CCC(CNS(=O)(=O)c2c(C)cc(C)cc2C)CC1 (configuration not stated) | > 42 µM (inactive)
38 | CC/C(=N\Nc1ccc([N+](=O)[O-])cc1)c1ccccc1 | > 42 µM (inactive)
39 | O=C(c1ccco1)N1CCN(C2CC(=O)N(c3ccc(F)c(Cl)c3)C2=O)CC1 (configuration not stated) | > 42 µM (inactive)
40 | COc1ccccc1NC(=O)Nc1ccc(Cl)c(S(=O)(=O)Nc2ccccc2OC)c1 | > 42 µM (inactive)
41 | C=CC[N+]1(CC#Cc2ccccc2)CCCC1 | > 42 µM (inactive)
42 | CC(C(=O)Nc1ccccc1-c1ccccc1)N1CCN(Cc2ccccc2)CC1 (configuration not stated) | > 42 µM (inactive)
43 | COc1ccccc1NC(=O)c1nn(C)cc1Br | > 42 µM (inactive)
44 | CC1CCN(S(=O)(=O)c2ccc(NC(=O)c3cccs3)cc2)CC1 | > 42 µM (inactive)
45 | CCOC(=O)C1CC(c2ccccc2)=NNC1=O (configuration not stated) | > 42 µM (inactive)
46 | Cc1ccc(-n2c(-c3ccco3)nc3c(cnn3-c3ccc(C)cc3)c2=O)cc1 | > 42 µM (inactive)
47 | CCOc1cc(C(N)=O)cc(Cl)c1OCc1ccccc1 | > 42 µM (inactive)
48 | Cc1cc(C(F)F)n2ncc(C(=O)NCCc3ccc(Cl)cc3)c2n1 | > 42 µM (inactive)

Row | SMILES | AC50
49 | CCOCCCNC(=O)C(c1ccc(OC)cc1)N(Cc1ccc2c(c1)OCO2)C(=O)CNC(C)=O (configuration not stated) | > 42 µM (inactive)
50 | COc1cc(NC(=O)C2=CC(c3ccco3)=NS(=O)(=O)N2C)cc(OC)c1OC | > 42 µM (inactive)
51 | O=C(COc1ccccc1)Nc1ccc(OC(F)(F)C(F)F)c(NC(=O)COc2ccccc2)c1 | > 42 µM (inactive)
52 | Cc1noc(C)c1Cc1ccc(O)cc1 | > 42 µM (inactive)
53 | COCCNC(=O)C(=O)N/N=C(\C)CC(=O)Nc1cccc(C(F)(F)F)c1 | > 42 µM (inactive)
54 | CC1C(=O)CC(c2ccccc2)NC1c1ccccc1 (configuration not stated) | > 42 µM (inactive)
55 | CCCCOc1ccc(C(O)C(CN2CCOCC2)c2ccccc2)cc1 (configuration not stated) | > 42 µM (inactive)
56 | COc1cccc(C(=O)NCc2ccc(-c3nc4ccccc4s3)cc2)c1 | > 42 µM (inactive)
57 | CCCCN(C/C=C/c1ccccc1OC)Cc1ccccc1 | > 42 µM (inactive)
58 | COc1ccc(NC(=O)Cn2c(=O)cnc3ccccc32)cc1S(=O)(=O)N1CCCCC1 | > 42 µM (inactive)
59 | CCOC(=O)COc1nc(-c2ccc(C)cc2)cc(-c2ccco2)c1C#N | > 42 µM (inactive)
60 | CCCCCOC(=O)C1=C(C)N(C)C(=O)NC1c1cc(Br)c(O)c(OC)c1 (configuration not stated) | > 42 µM (inactive)
61 | O=C(Nc1ccc([N+](=O)[O-])cn1)c1ccc2c(c1)OCO2 | > 42 µM (inactive)
62 | CCN1C(=NCCCCO)N[C@@H](c2cccc(C(F)(F)F)c2)C(C(=O)OC)=C1C | > 42 µM (inactive)
63 | O=C(CCCC(=O)N(CC(=O)NC1CCCC1)c1cccc(F)c1)Nc1ccccn1 | > 42 µM (inactive)
64 | CC(NC(=O)c1ccc(Cl)cc1)C(=O)N1CCCCC1 (configuration not stated) | > 42 µM (inactive)
65 | Cc1nc(-c2ccc(Cl)cc2)sc1C1(C)CC(c2c(Cl)cccc2Cl)=NO1 (configuration not stated) | > 42 µM (inactive)
66 | CC(C)NC(=O)COc1ccc(S(=O)(=O)N(C)Cc2ccccc2)cc1 | > 42 µM (inactive)
67 | Cc1ccc(S(=O)(=O)Nc2n[nH]nc2C(=O)NC2CCCCC2)cc1 | > 42 µM (inactive)
68 | COc1ccccc1/C=C/C(=O)N1CCc2cc(OC)c(OC)cc2C1C (configuration not stated) | > 42 µM (inactive)
69 | CN(C(=O)c1cncc(Br)c1)C1C2CC3CC(C2)CC1C3 (configuration not stated) | 8.94 µM
70 | CCOC(=O)c1sc(NC(=O)CSc2n[nH]c(-c3ccccc3)n2)c(C#N)c1C | > 42 µM (inactive)
71 | O=C(COC(=O)c1ccc([N+](=O)[O-])s1)c1ccc[nH]1 | > 42 µM (inactive)
72 | O=C(NNC(=O)c1ccc(-n2cncn2)c([N+](=O)[O-])c1)c1ccc(Cl)cc1 | > 42 µM (inactive)
